Source: paper PMC8156206, “Novel N,N′-Disubstituted Selenoureas as Potential Antioxidant and Cytotoxic Agents” (Antioxidants, 2021)

Tests used:
[1] = DPPH radical scavenging assay; conditions: for DPPH radical scavenging kinetics: 0.03 mg/mL, time-point 0 min; for DPPH radical scavenging capacity compared with ascorbic acid: at lower concentrations
Description: (§1) From all the methods available for the prediction of the antioxidant properties, DPPH^● and ABTS^●+ assays were chosen according to their simplicity, accessibility, and effectiveness for a fast prediction of radical scavenging activities in vitro. The radical scavenging capacity of the novel selenoureas was determined by DPPH^● and ABTS^●^+ assays. Measurements were recorded on a BioTeck PowerWave XS spectrophotometer (BioTeck Instruments, Winooski (VT), USA) and the data were collected using KCJunior software (BioTeck Instruments, Winooski (VT), USA).
A DPPH assay was performed, as described by Svinyarov. Stock solutions of 1 mg/mL were initially prepared for each selenourea in methanol and this solution was used for the preparation of the different concentrations employed in the assay. Ascorbic acid (Asc) was used as positive control due to the literature reports that this derivative is a potent antioxidant and radical scavenger. A volume of 100 µL from a previously prepared stock solution (preserved in dark and daily prepared) of DPPH (100 µM) in methanol were added to 100 µL of the methanolic selenoureas solutions prepared previously, and the antioxidant activity these compounds was assessed by its ability to decolorize DPPH● radical (purple color in methanol) to DPPHH (colorless). Thus, radical scavenging activity was estimated by the decrease in the absorbance at 517 nm. Determinations were recorded at different time-points. All the measurements were carried out in triplicate. Results are expressed as the percentage of the radicals scavenged, calculated using the following formula:(1) % DPPH radical scavenging=Acontrol − Asample/Acontrol × 100 where Acontrol refers to the absorbance of the negative control and Asample refers to the absorbance of the tested compounds. Results are expressed as percentage of DPPH radical scavenging ± SD.
In order to determine the radical scavenging of these newly synthesized selenourea derivatives, the DPPH assay was firstly employed. Measurements were performed at four different concentrations ranging from 0.0003 to 0.03 mg/mL, and collected at time-points between 0 min and 120 min (Figures S81–S100). Results are presented as the percentage of inhibition for DPPH radical scavenging activity.

[2] = test system: MCF-7 cells (breast adenocarcinoma); assay: MTT cell viability assay, MCF-7; type: cell-based, human; conditions: Homo sapiens, MCF7, 48 h, MTT, read-out: cell viability, percentage of live cells; for viability at 10 µM: MCF-7, 10 µM; for viability at 50 µM: MCF-7, 50 µM
Description: (§2) Cell lines were purchased from the American Type Culture Collection (ATCC). MCF-7, HTB-54, BEAS-2B and 184B5 cell lines were grown in RPMI 1640 medium (Gibco) supplemented with 10% fetal bovine serum (FBS; Gibco), 100 units/mL penicillin, and […] streptomycin (Gibco). HT-29 and HCT-116 cell lines was cultured in McCoy’s 5A (Gibco), 10% FBS, 100 units/mL penicillin, and 100 μg/mL streptomycin. Cells were maintained at 37 °C and 5% CO2. Culture medium was replaced every three days.
(§3) A cell viability assay of each compound was carried out using an MTT assay. Each selenourea was dissolved in dimethyl sulfoxide (DMSO) at a concentration of 0.01 M. Serial dilutions were prepared with non-supplemented culture medium. Cytotoxic activity of each selenourea was determined at two different concentrations (10 and 50 µM) in MCF-7, HTB-54, and HT-29 cells. In addition, selected compounds were tested at seven different concentrations (0.1, 1, 5, 10, 25, 50, 100 µM) on MCF-7, HT-29, HCT-116, HTB-54, 184B5, and BEAS-2B cells. The number of passages before defrosting the cells was 3, and they were kept under culture up to a maximum of 15.
(§4) Briefly, 1 × 10^4 cells/well were grown in 96-well plates for 24 h. Then, these cells were incubated with either DMSO (negative control) at 5 µM or a different concentration of each tested selenourea for 48 h. A volume of 20 µL of MTT was added 150 min before the termination point to measure cellular viability. After this time, culture medium was removed. The resultant formazan crystals were dissolved in 50 µL of DMSO, and absorbance was measured at 570 nm. Results are expressed as IC50, the half maximal inhibitory concentration. This value was calculated using GraphPad Prism 7 software by nonlinear curve fitting. Furthermore, the selectivity index (SI) was calculated as the ratio of the IC50 values determined for the non-malignant and the tumoral cells (IC50 (184B5)/IC50 (MCF-7) or (IC50 (BEAS-2B)/IC50 (HTB-54). Data were obtained from at least three independent experiments performed in triplicates.
(§5) The cytotoxic effects of synthesized compounds were evaluated against three human cancer cell lines: breast adenocarcinoma (MCF-7), lung adenocarcinoma (HTB-54), and colon carcinoma (HT-29), using a 3-[4,5-dimethylthiazol-2-yl]-2,5-diphenyltetrazolium bromide (MTT) assay. Firstly, the compounds were screened at two doses (50 and 10 µM) and after 48 h of treatment. The results are summarized in Figure 4 and are presented as percentages of growth inhibition related to control.

[3] = test system: HTB-54 cells (lung adenocarcinoma); assay: MTT cell viability assay, HTB-54; type: cell-based, human; conditions: Homo sapiens, 48 h, MTT, read-out: cell viability, percentage of live cells; for viability at 10 µM: HTB-54, 10 µM; for viability at 50 µM: HTB-54, 50 µM
Description: as §2, §3, §4, §5

[4] = test system: HT-29 cells (colon carcinoma); assay: MTT cell viability assay, HT-29; type: cell-based; conditions: Homo sapiens, 48 h, MTT, read-out: cell viability, percentage of live cells; for viability at 10 µM: HT-29, 10 µM; for viability at 50 µM: HT-29, 50 µM
Description: as §2, §3, §4, §5

[5] = ABTS radical scavenging assay; conditions: for ABTS radical scavenging kinetics: 0.03 mg/mL
Description: as §1
As well as DPPH, ABTS radical scavenging assay is a colorimetric method. ABTS (2,2′-azino-bis(3-ethylbenzothiazoline-6-sulfonic acid) was dissolved in deionized water at 1 mg/mL and oxidized to ABTS^●+ with potassium persulfate (2.45 mM final concentration). This oxidation process is not instantaneous, and the reaction mixture was kept in the dark overnight at room temperature. After ABTS^●+ radical was generated, the ABTS^●+ solution was diluted with 50% ethanol until an absorbance of 0.70 ± 0.02 at 734 nm for measurements was achieved. Stock solution of 1 mg/mL in absolute ethanol was prepared for each selenourea, and different dilutions were prepared to reach the final concentration, when 20 µL of this solution were added to 180 µL of the diluted ABTS^●+. The absorbance at 734 nm was recorded using 50% ethanol as blank. Trolox and Asc were used as positive controls. All determinations were carried out in triplicate. Same time intervals as in the DPPH assay were also measured. The ability to scavenge ABTS^●+ was calculated using the following formula:(2) % ABTS radical scavenging=Acontrol − Asample/Acontrol × 100 where Acontrol refers to the absorbance of the negative control and Asample refers to the absorbance of the tested compounds. The results are expressed as percentage of ABTS radical scavenging ± SD.
In order to confirm the antioxidant activity of the selenoureas, we performed an additional ABTS (2,2′-azino-bis(3-ethylbenzothiazoline-6-sulfonic acid) radical scavenging assay. Following the results obtained in the DPPH assay, this experiment was performed at 0.03 and 0.003 mg/mL. Measurements were recorded after 0′, 6′ and 60′ of incubation with ABTS. For comparison purposes, Trolox and ascorbic acid were used as references. The remarkable results are summarized in Figure 3.

Row | SMILES | DPPH radical scavenging kinetics [1] | viability at 10 µM [2] | viability at 50 µM [2] | viability at 10 µM [3] | viability at 50 µM [3] | viability at 10 µM [4] | viability at 50 µM [4] | melting point | ABTS radical scavenging kinetics [5] | ABTS radical scavenging activity compared with Trolox ([5]; 0.003 mg/mL, 60 min) | DPPH radical scavenging capacity compared with ascorbic acid [1] | ABTS radical scavenging activity ([5]; 0.003 mg/mL, 60 min)
1 | CCCCCCNC(=[Se])Nc1ccc(C#N)cc1 [Compound 5e, N-hexyl-N´-(4-cyanophenyl)selenourea] | reaching the maximum activity at time-point 0′ | 68.5% | 14.7% | 80.2% | 23.3% | 59.1% | 40.4% | 125 °C |  |  |  | 
2 | O=c1ccc2cc(NC(=[Se])Nc3ccc(Cl)cc3)ccc2o1 [Compound 3d] | reaching the maximum activity at time-point 0′ | 69.7% | 28.6% | 70.1% | 14% | 59.1% | 35.7% | 156 °C |  |  |  | 
3 | CCCCCCNC(=[Se])Nc1ccc(OC)cc1 [Compound 5c] |  | 60.1% | 8.1% | 70.4% | 10.7% | 62.6% | 31.1% | 97 °C |  |  |  | 
4 | COc1ccc(NC(=[Se])NCc2ccco2)cc1 [Compound 1c] |  | 64% | 21.5% | 55.7% | 28.8% | 70.5% | 39.1% | 128 °C |  |  |  | 
5 | Cc1ccc(NC(=[Se])Nc2ccc3oc(=O)ccc3c2)cc1 [Compound 3b] | reaching the maximum activity at time-point 0′ | 73.8% | 29.2% | 62.9% | 27.3% | 57.1% | 46.1% | 145 °C |  |  |  | 
6 | [Se]=C(NCc1ccco1)Nc1ccccc1 [Compound 1a] |  | 75.7% | 32.3% | 63.5% | 20.5% | 70.4% | 44.6% | 109 °C |  |  |  | 
7 | O=C1O[C@H]([C@@H](O)CO)C(O)=C1O [ascorbic acid, reference compound] |  |  |  |  |  |  |  |  | reached the maximal ABTS radical scavenging activity quickly |  |  | 
8 | N#Cc1ccc(NC(=[Se])Nc2ccc3oc(=O)ccc3c2)cc1 [Compound 3e] | reaching the maximum activity at time-point 0′ | 59.7% | 31.1% | 60.8% | 17.8% | 66.6% | 32.2% | 140 °C |  | significant lower radical scavenging activity than Trolox |  | 
9 | Cc1ccc(NC(=[Se])NCc2nccs2)cc1 [Compound 2b] |  | 65.5% | 16.8% | 53.1% | 18.1% | 88.3% | 49.6% | 154 °C |  |  | greater radical scavenging capacity than ascorbic acid | 
10 | CCCCCCNC(=[Se])Nc1ccc(Cl)cc1 [Compound 5d] |  | 81.3% | 17.3% | 81.4% | 57.2% | 69.1% | 42.5% | 110 °C |  | significant lower radical scavenging activity than Trolox |  | 
11 | CCCCNC(=[Se])Nc1ccc(Cl)cc1 [Compound 4d] |  | 50.3% | 34.1% | 58.1% | 38% | 64.4% | 46% | 116 °C |  |  |  | 
12 | COc1ccc(NC(=[Se])NCc2nccs2)cc1 [Compound 2c] |  | 60% | 33.1% | 58.5% | 30.3% | 88.9% | 53.1% | 150 °C |  |  | greater radical scavenging capacity than ascorbic acid | above 90%
13 | Cc1ccc(NC(=[Se])NCc2ccco2)cc1 [Compound 1b] |  | 64.8% | 12.4% | 52.1% | 21.6% | 66.2% | 43.1% |  |  |  |  | 
14 | Cc1c(C)c2c(c(C)c1O)CCC(C)(C(=O)O)O2 (centres unmarked) [Trolox, reference compound] |  |  |  |  |  |  |  |  | reached the maximal ABTS radical scavenging activity quickly |  |  | 
15 | CCCCNC(=[Se])Nc1ccc(C#N)cc1 [Compound 4e] | reaching the maximum activity at time-point 0′ | 70.7% | 39% | 74.6% | 29.7% | 60.7% | 46.3% | 145 °C |  |  |  | 
16 | COc1ccc(NC(=[Se])Nc2ccc3oc(=O)ccc3c2)cc1 [Compound 3c] | reaching the maximum activity at time-point 0′ | 73.9% | 17.4% | 61.6% | 9.7% | 58.2% | 34.3% | 159 °C |  |  |  | 
